According to PubChem BioAssay AID248 (DTP/NCI, 2004):
“And” between values parts separate entries of the source, which are not always exact repeats. Equal values may be shown once. Inconclusive results and toxic doses are left out. Rule as the data show it: active = T/C of 150% or more; inactive = T/C below 125%.

Test system: L1210 leukemia ip in BDF1 mice, survival T/C
Assay: NCI In Vivo Anticancer Drug Screen. Data for tumor model L1210 Leukemia (intraperitoneal) in B6D2F1 (BDF1) mice
Details: endpoint: mean survival time, higher = longer survival
Description: The antitumor activity of compounds was measured in mice bearing transplantable tumors. Survival or tumor size were measured and the results are expressed as the measurement made in the treated group (T) divided by the measurement made in the vehicle treated control group (C). The tumor model used in this assay is L1210 Leukemia (intraperitoneal) in B6D2F1 (BDF1) mice

[1] = dose: 100.0 mg/kg/injection, schedule: Q01DX001 (ip), vehicle: Klucel (hydroxypropylcellulose) (HPC)
[2] = dose: 200.0 mg/kg/injection, schedule: Q01DX001 (ip), vehicle: Klucel (hydroxypropylcellulose) (HPC)
[3] = dose: 400.0 mg/kg/injection, schedule: Q01DX001 (ip), vehicle: Klucel (hydroxypropylcellulose) (HPC)
[4] = dose: 100.0 mg/kg/injection, schedule: Q01DX001 (ip), vehicle: saline
[5] = dose: 100.0 mg/kg/injection, schedule: Q04DX003 (ip), vehicle: saline
[6] = dose: 200.0 mg/kg/injection, schedule: Q01DX001 (ip), vehicle: saline
[7] = dose: 200.0 mg/kg/injection, schedule: Q04DX003 (ip), vehicle: saline
[8] = dose: 400.0 mg/kg/injection, schedule: Q01DX001 (ip), vehicle: saline
[9] = dose: 400.0 mg/kg/injection, schedule: Q04DX003 (ip), vehicle: saline
[10] = dose: 100.0 mg/kg/injection, schedule: Q01DX009 (ip), vehicle: saline
[11] = dose: 200.0 mg/kg/injection, schedule: Q01DX009 (ip), vehicle: saline

Measured: T/C

CCOc1ccc(/C=C(\C#N)c2cccc(Cl)c2)cc1
inactive: dose: 100.0 mg/kg/injection, schedule: Q01DX009 (ip), vehicle: Klucel (hydroxypropylcellulose) (HPC) 100 % of control | dose: 200.0 mg/kg/injection, schedule: Q01DX009 (ip), vehicle: Klucel (hydroxypropylcellulose) (HPC) 93 % of control | dose: 400.0 mg/kg/injection, schedule: Q01DX009 (ip), vehicle: Klucel (hydroxypropylcellulose) (HPC) 91 % of control

Cc1cc[n+]2cc3ccc4ccccc4c3c(C)c2c1
inactive: dose: 2.0 mg/kg/injection, schedule: Q01DX015 (ip), vehicle: saline 102 % of control | dose: 3.12 mg/kg/injection, schedule: Q01DX009 (ip), vehicle: acetone 106 % of control | dose: 4.0 mg/kg/injection, schedule: Q01DX015 (ip), vehicle: saline 95 % of control | dose: 6.25 mg/kg/injection, schedule: Q01DX009 (ip), vehicle: acetone 101 % of control | dose: 8.0 mg/kg/injection, schedule: Q01DX015 (ip), vehicle: saline 101 % of control | dose: 12.5 mg/kg/injection, schedule: Q04DX003 (ip), vehicle: acetone 106 % of control | dose: 16.0 mg/kg/injection, schedule: Q01DX015 (ip), vehicle: saline 118 % of control

NC(CCl)=NCc1ccccn1
inactive: dose: 100.0 mg/kg/injection, schedule: Q04DX002 (ip), vehicle: saline 96 % of control

CCCC1(CCC)c2ccccc2C(=O)c2ccccc21
inactive: [1] 105 % of control | dose: 100.0 mg/kg/injection, schedule: Q04DX003 (ip), vehicle: Klucel (hydroxypropylcellulose) (HPC) 100 % of control | [2] 96 % of control | dose: 200.0 mg/kg/injection, schedule: Q04DX003 (ip), vehicle: Klucel (hydroxypropylcellulose) (HPC) 96 % of control | [3] 105 % of control | dose: 400.0 mg/kg/injection, schedule: Q04DX003 (ip), vehicle: Klucel (hydroxypropylcellulose) (HPC) 95 % of control

NN1CCCC1C(=O)O (stereo not drawn)
inactive: dose: 75.0 mg/kg/injection, schedule: Q01DX001 (ip), vehicle: saline 97 % of control | dose: 150.0 mg/kg/injection, schedule: Q01DX001 (ip), vehicle: saline 92 % of control

COc1ccccc1OC(=O)c1ccccc1O
inactive: [4] 107 % of control | [5] 90 % of control | [6] 100 % of control | [7] 90 % of control | [8] 94 % of control | [9] 88 % of control

O=C(O)C1CCCN1O (stereo not drawn)
inactive: [4] 104 % of control | [6] 98 % of control | [8] 98 % of control

COc1ccc(C(=Cc2ccccc2Br)c2ccc(OC)cc2)cc1
inactive: dose: 100.0 mg/kg/injection, schedule: Q01DX009 (ip), vehicle: saline with Tween-80 102 % of control | dose: 100.0 mg/kg/injection, schedule: Q04DX003 (ip), vehicle: saline with Tween-80 106 % of control | dose: 200.0 mg/kg/injection, schedule: Q01DX009 (ip), vehicle: saline with Tween-80 98 % of control | dose: 200.0 mg/kg/injection, schedule: Q04DX003 (ip), vehicle: saline with Tween-80 98 % of control | dose: 400.0 mg/kg/injection, schedule: Q01DX009 (ip), vehicle: saline with Tween-80 93 % of control | dose: 400.0 mg/kg/injection, schedule: Q04DX003 (ip), vehicle: saline with Tween-80 92 % of control

CCOc1ccccc1NC(=O)Oc1ccc(SC)c(C)c1
inactive: dose: 100.0 mg/kg/injection, schedule: Q04DX002 (ip), vehicle: saline with Tween-80 113 % of control | dose: 200.0 mg/kg/injection, schedule: Q04DX002 (ip), vehicle: saline with Tween-80 110 % of control | dose: 400.0 mg/kg/injection, schedule: Q04DX002 (ip), vehicle: saline with Tween-80 103 % of control

Cc1ccc(NP(N)(=O)Nc2ccc(C)cc2)cc1
inactive: dose: 50.0 mg/kg/injection, schedule: Q01DX001 (ip), vehicle: alcohol 102 % of control | dose: 100.0 mg/kg/injection, schedule: Q01DX001 (ip), vehicle: alcohol 102 % of control | dose: 200.0 mg/kg/injection, schedule: Q01DX001 (ip), vehicle: alcohol 108 % of control | dose: 400.0 mg/kg/injection, schedule: Q01DX001 (ip), vehicle: alcohol 96 % of control

COc1cccc(C)c1NC1=NCCO1
inactive: dose: 1.56 mg/kg/injection, schedule: Q01DX009 (ip), vehicle: saline with Tween-80 97 % of control | dose: 1.56 mg/kg/injection, schedule: Q04DX003 (ip), vehicle: saline with Tween-80 97 % of control | dose: 3.13 mg/kg/injection, schedule: Q01DX009 (ip), vehicle: saline with Tween-80 116 % of control | dose: 3.13 mg/kg/injection, schedule: Q04DX003 (ip), vehicle: saline with Tween-80 100 % of control | dose: 6.25 mg/kg/injection, schedule: Q01DX009 (ip), vehicle: saline with Tween-80 101 % of control | dose: 6.25 mg/kg/injection, schedule: Q04DX003 (ip), vehicle: saline with Tween-80 100 % of control and 101 % of control | dose: 25.0 mg/kg/injection, schedule: Q04DX003 (ip), vehicle: saline with Tween-80 96 % of control

CC(=O)Nc1c2ccccc2nc2c1c(C)c(C)c1ccccc12
inactive: dose: 50.0 mg/kg/injection, schedule: Q01DX001 (ip), vehicle: Klucel (hydroxypropylcellulose) (HPC) 87 % of control | [1] 89 % of control | [2] 94 % of control | [3] 91 % of control

N=C(N)c1cccc(NC(=O)c2ccc(C(=O)Nc3cccc(C(=N)N)c3)cc2)c1
inactive: dose: 8.0 mg/kg/injection, schedule: Q01DX Z (ip), vehicle: carboxymethylcellulose (CMC) 95 % of control | dose: 15.0 mg/kg/injection, schedule: Q01DX Z (ip), vehicle: saline 95 % of control | dose: 16.0 mg/kg/injection, schedule: Q01DX Z (ip), vehicle: carboxymethylcellulose (CMC) 96 % of control | dose: 30.0 mg/kg/injection, schedule: Q01DX Z (ip), vehicle: saline 120 % of control | dose: 31.0 mg/kg/injection, schedule: Q01DX Z (ip), vehicle: carboxymethylcellulose (CMC) 106 % of control | dose: 60.0 mg/kg/injection, schedule: Q01DX Z (ip), vehicle: saline 104 % of control | dose: 62.0 mg/kg/injection, schedule: Q01DX Z (ip), vehicle: carboxymethylcellulose (CMC) 113 % of control

CC(C)N(CCN)C(C)C
inactive: dose: 50.0 mg/kg/injection, schedule: Q01DX009 (ip), vehicle: saline 94 % of control | [10] 103 % of control | [5] 95 % of control | [11] 103 % of control | [7] 97 % of control

CC(C)CC(NC(=O)CN)C(=O)O (stereo not drawn)
inactive: [5] 107 % of control | [7] 104 % of control | [9] 107 % of control

O=c1cc(-c2ccc(S(=O)(=O)F)cc2)[nH]c2ccc([N+](=O)[O-])cc12
inactive: [10] 101 % of control | [11] 101 % of control | dose: 400.0 mg/kg/injection, schedule: Q01DX009 (ip), vehicle: saline 100 % of control

CCN(CC)S(=O)(=O)c1ccc(Nc2nc(Cl)nc(Cl)n2)cc1
inactive: dose: 12.5 mg/kg/injection, schedule: Q01DX009 (ip), vehicle: Klucel (hydroxypropylcellulose) (HPC) 113 % of control | dose: 12.5 mg/kg/injection, schedule: Q04DX003 (ip), vehicle: Klucel (hydroxypropylcellulose) (HPC) 102 % of control | dose: 25.0 mg/kg/injection, schedule: Q01DX009 (ip), vehicle: Klucel (hydroxypropylcellulose) (HPC) 97 % of control | dose: 25.0 mg/kg/injection, schedule: Q04DX003 (ip), vehicle: Klucel (hydroxypropylcellulose) (HPC) 100 % of control | dose: 50.0 mg/kg/injection, schedule: Q01DX009 (ip), vehicle: Klucel (hydroxypropylcellulose) (HPC) 113 % of control | dose: 50.0 mg/kg/injection, schedule: Q04DX003 (ip), vehicle: Klucel (hydroxypropylcellulose) (HPC) 95 % of control

CCCCNC(=O)C1C=C2c3cccc4c3C(CN4)CC2N(C)C1 (stereo not drawn)
inactive: dose: 25.0 mg/kg/injection, schedule: Q01DX009 (ip), vehicle: saline with Tween-80 87 % of control | dose: 50.0 mg/kg/injection, schedule: Q01DX009 (ip), vehicle: saline with Tween-80 89 % of control
